The target in data set [1] is NS3 serine protease of HCV genotype 1a (Hepatitis C virus genotype 1a, UniProt P27958). The data set can be described thus: Steady state velocity analysis with NS3 serine protease, HCV genotype 1a. In kind it is biochemical. Particulars: non-covalent, competitive mode of inhibition, read-out: Inhibitor constant (Ki). An excerpt: (§1) A distinguishing feature of the Compound (1) inhibitor series is the presence of a C-terminal carboxylic acid functionality.

A short description of data set [2]: Light sensitivity of the oral solution. In kind it is physicochemical. Particulars: solution in PEG 400:Ethanol 80:20 w/w. An excerpt: Keep away from direct sunlight and cover with aluminium foil whenever possible.
In data set [3] the test system is NS3 protease-dependent polyprotein processing. The data set is described as follows: NS3 protease-dependent polyprotein processing in HCV replicon-containing cells. In kind it is cell-based.
Description: as §1
(A replicon is a self-replicating genome or part of one, used to study replication in cells.)

The subject of a further data set is HCV. The data set can be described thus: Clinical study in patients with chronic HCV infection, viral load. Type of data set: in vivo, human. Particulars: HCV infected patients, oral formulation, within 48 hours after first administration, some patients. How it is done:
(§2) In a first single rising dose trial in healthy male subjects the tolerability and pharmacokinetic parameters of Compound (1) were investigated. […] The degree of viral load reduction upon administration of Compound (1) was a significant and unexpected finding, with some patients even experiencing up to a 3 log reduction in viral load within 48 hours after the first administration of Compound (1).
The term “viral load” with respect to HCV in a mammal means the number of HCV mRNA genome copies per ml of serum present in the mammal. The viral load value can be measured, for example, by mRNA-PCR quantitation in blood samples using Cobas Amplicor HCV Monitor v 2.0 (Roche Diagnostics); Amplicor HCV v 2.0, Roche Diagnostics; HCV Transcription Mediated Amplification (TMA) assay, Bayer Diagnostics; HCV RNA Qualitative Testing (TMA) assay, Bayer Diagnostics; the HCV branched DNA (bDNA) assay version 3.0, Bayer Diagnostics; Versant HCV RNA 3.0 Assay (bDNA), Bayer Diagnostics, and Superquant assay, National Genetics Institute (Los Angeles, Calif.).
The degree of viral load reduction upon the administration of Compound (1) was a significant and unexpected finding, with some patients even experiencing up to a 3 log reduction in viral load within 48 hours after the first administration of Compound (1). […]

Data set [4] can be described thus: Oral bioavailability in animal species. Type of data set: in vivo. The settings on record: various animal species.
Description: as §1

In data set [5] the target is NS3 serine protease of HCV genotype 1b (Hepatitis C virus genotype 1b, UniProt P26663). The data set is described as follows: Steady state velocity analysis with NS3 serine protease, HCV genotype 1b. Type of data set: biochemical. Particulars: non-covalent, competitive mode of inhibition, read-out: Inhibitor constant (Ki).
Sequence of NS3 serine protease of HCV genotype 1b (P26663 1027-1657): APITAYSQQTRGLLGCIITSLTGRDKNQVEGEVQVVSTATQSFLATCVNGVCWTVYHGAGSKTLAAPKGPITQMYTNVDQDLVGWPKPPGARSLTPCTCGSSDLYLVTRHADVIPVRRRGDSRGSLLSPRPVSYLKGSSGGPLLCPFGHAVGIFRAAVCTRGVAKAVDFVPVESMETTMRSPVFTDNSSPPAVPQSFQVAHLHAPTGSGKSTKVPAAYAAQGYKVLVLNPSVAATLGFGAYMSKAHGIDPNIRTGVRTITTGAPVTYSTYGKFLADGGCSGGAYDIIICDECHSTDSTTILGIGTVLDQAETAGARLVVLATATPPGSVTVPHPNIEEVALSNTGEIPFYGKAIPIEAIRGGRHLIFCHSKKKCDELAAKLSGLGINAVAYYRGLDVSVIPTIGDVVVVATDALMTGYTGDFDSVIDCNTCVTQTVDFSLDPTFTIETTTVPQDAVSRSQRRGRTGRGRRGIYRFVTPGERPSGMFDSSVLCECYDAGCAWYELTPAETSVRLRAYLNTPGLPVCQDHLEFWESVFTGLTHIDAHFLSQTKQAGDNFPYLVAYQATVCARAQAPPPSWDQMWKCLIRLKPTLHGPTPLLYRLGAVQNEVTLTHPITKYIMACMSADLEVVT
Sequence of NS3 serine protease of HCV genotype 1b (P26663 1658-1711): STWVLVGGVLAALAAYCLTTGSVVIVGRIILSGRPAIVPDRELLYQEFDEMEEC
Description: as §1

The test system of a further data set is HCV RNA replication. The data set can be described thus: HCV RNA replication in the replicon cell model system. The settings on record: human cells. Type of data set: cell-based.
Description: as §1

Data set [6] in a line: Single rising dose trial in healthy male subjects. Type of data set: in vivo, human. The method, then:
as §2

Sequence of NS3 serine protease of HCV genotype 1a (P27958 1027-1657): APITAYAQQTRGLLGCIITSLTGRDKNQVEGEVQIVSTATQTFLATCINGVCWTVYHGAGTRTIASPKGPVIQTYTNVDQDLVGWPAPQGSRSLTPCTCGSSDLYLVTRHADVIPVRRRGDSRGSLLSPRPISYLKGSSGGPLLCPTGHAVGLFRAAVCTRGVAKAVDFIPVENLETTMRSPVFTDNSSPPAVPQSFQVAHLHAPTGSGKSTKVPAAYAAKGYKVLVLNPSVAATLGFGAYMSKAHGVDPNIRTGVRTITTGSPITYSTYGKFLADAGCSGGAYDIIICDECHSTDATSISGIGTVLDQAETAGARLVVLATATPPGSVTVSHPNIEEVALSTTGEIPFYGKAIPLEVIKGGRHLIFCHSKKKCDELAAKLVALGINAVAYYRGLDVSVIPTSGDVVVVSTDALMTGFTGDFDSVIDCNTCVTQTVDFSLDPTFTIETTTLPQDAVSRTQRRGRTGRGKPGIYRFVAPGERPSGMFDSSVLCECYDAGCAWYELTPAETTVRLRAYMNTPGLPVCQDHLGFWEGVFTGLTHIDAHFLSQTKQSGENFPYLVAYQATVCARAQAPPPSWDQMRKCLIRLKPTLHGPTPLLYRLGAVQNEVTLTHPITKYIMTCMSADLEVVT
Sequence of NS3 serine protease of HCV genotype 1a (P27958 1658-1711): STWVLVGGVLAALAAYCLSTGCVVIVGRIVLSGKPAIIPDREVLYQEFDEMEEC

Turning to `COc1ccc2c(O[C@@H]3C[C@H]4C(=O)N[C@]5(C(=O)O)C[C@H]5/C=C\CCCCC[C@H](NC(=O)OC5CCCC5)C(=O)N4C3)cc(-c3csc(NC(C)C)n3)nc2c1` [Compound (1)], the Ki was found to be 0.3 nM in data set [1] and 0.66 nM in data set [5]. Besides, in data set [2], the Light sensitivity entry was “light sensitive”. Also, the “Ability to block NS3 protease-dependent polyprotein processing” value in data set [3] is given as “block NS3 protease-dependent polyprotein processing”. Moreover, in the data set on HCV, the “Reduction in viral load” value is no more than 3 log. Further, in data set [4], the Oral bioavailability entry was “orally bioavailable”. In addition, in the data set on HCV RNA replication, the “Inhibition of HCV RNA replication” value is “low nanomolar inhibition”. The Tolerability result in data set [6] is listed as “well tolerated up to 2000 mg”.

Values taken from patent US20040138109A1, “Potent inhibitor of HCV serine protease” (Boehringer Ingelheim Pharmaceuticals, Inc., priority 2002, published 2004).
